Measured values published in US20240417397A1 (priority 2021, published 2024).

System: Rice blast fungi (Pyricularia oryzae, MAFF101511)
Assay: microbe, parasite or virus in culture
Type: cell-based
Conditions: 72 h, read-out: Inhibition rate (%) of elongation length of fungal filaments

| Structure (SMILES) | inhibition at 500 ppm [%] |
| --- | --- |
| COc1n[nH]c(F)c1C(F)(F)F [Example 2, 3-fluoro-5-methoxy-4-trifluoromethylpyrazole] | 95 |
| COc1n[nH]c(N2CCC(OC)CC2)c1C(F)(F)F [Example 9, 3-methoxy-5-(4-methoxypiperidin-1-yl)-4-trifluoromethyl-1H-pyrazole] | 88 |
